{"source": "patent US20070049564A1", "about": "(Wyeth, priority 2005, published 2007)", "key": {"S. cholerasius GC 1355": {"test_system": "S. cholerasius GC 1355", "assay": "MIC, broth microdilution", "settings": "S. cholerasius GC 1355", "quoted_text": "(§1) Antimicrobial susceptibility testing. The in vitro activities of the antibiotics are determined by the broth microdilution method as recommended by the National Committee for Clinical Laboratory Standards (NCCLS) (1). Mueller-Hinton II broth (MHBII)(BBL Cockeysville, Md.) is the medium employed in the testing procedures. Microtiter plates containing serial dilutions of each antimicrobial agent are inoculated with each organism to yield the appropriate density (10^5 CFU/ml) in a 100 μl final volume. The plates are incubated for 18-22 hours at 35° C. in ambient air.\n(§2) Presented in Tables I-XIII are representative compounds of Formula I which were evaluated against a panel of 40 selected gram-positive and gram-negative bacteria strains by pre-incubation in water, mouse serum or human serum. Representative compounds were first incubated in mouse serum for an hour prior to the in vitro testing against a panel of selected gram-positive and gram-negative bacteria strains. All compounds were also pre-incubated in water for an hour prior to testing as control. Representative compounds of Formula I were incubated in human serum prior to MIC determination."}, "[1]": {"assay": "Pharmacokinetics in monkey, IV 2 mg/kg and oral 10 mg/kg", "assay_type": "in vivo", "settings": "Oral - MONKEY 10 mg/kg"}, "Salmonella spp. GC 235": {"test_system": "Salmonella spp. GC 235", "assay": "MIC, broth microdilution", "settings": "Salmonella, SPP.GC235, Salmonella spp. GC 235", "quoted_text": "as §1\nRepresentative compounds were first incubated in mouse serum for an hour prior to the in vitro testing against a panel of selected gram-positive and gram-negative bacteria strains. All compounds were also pre-incubated in water for an hour prior to testing as control."}, "Salmonella spp. GC 566": {"test_system": "Salmonella spp. GC 566", "assay": "MIC, broth microdilution", "settings": "Salmonella, SPP.GC566, Salmonella spp. GC 566", "quoted_text": "as §1, §2"}, "Staph. aureus Smith": {"test_system": "Staph. aureus Smith", "assay": "In vitro activity (MIC) against Staph. aureus Smith", "assay_type": "cell-based", "settings": "Staphylococcus aureus"}, "E. coli #311": {"test_system": "E. coli #311", "assay": "In vivo activity (oral, iv; ED50) against E. coli in mice", "settings": "Escherichia coli", "description": ". […] Smith and E. Coli #311 in mammals.\nResults of the tests (MIC, oral and IV) are list in Table 7."}, "E. coli": {"test_system": "E. coli", "assay": "In vitro activity (MIC) against E. coli (Table 7)", "assay_type": "cell-based", "settings": "Escherichia coli"}, "Enterococcus spp.": {"test_system": "Enterococcus spp.", "assay": "In vitro activity (MIC), strain groups", "set-up": "MIC: unit not given beside the values"}, "Streptococcus spp.": {"test_system": "Streptococcus spp.", "assay": "In vitro activity (MIC), strain groups", "set-up": "MIC: unit not given beside the values"}, "[2]": {"test_system": "E. coli, tet (M,S,O) Tet (M)", "assay": "In vitro activity (MIC), strain groups", "settings": "Human Serum", "quoted_text": "as §1, §2"}, "[3]": {"test_system": "E. coli, tet(A-D), efflux", "assay": "In vitro activity (MIC), strain groups", "quoted_text": "as §1\nRepresentative compounds were first incubated in mouse serum for an hour prior to the in vitro testing against a panel of selected gram-positive and gram-negative bacteria strains. All compounds were also pre-incubated in water for an hour prior to testing as control. Representative compounds of Formula I were incubated in human serum prior to MIC determination."}, "[4]": {"settings": "single intravenous dose, mice, Table 7, read-out: ED50 SIV (E. coli)"}, "[5]": {"settings": "single oral dose, mice, Table 7, read-out: ED50 SOD (E. coli)"}, "[6]": {"settings": "single intravenous dose (SIV), read-out: ED50 E. coli #311 SIV"}, "[7]": {"settings": "single oral dose (SOD), read-out: ED50 E. coli #311 SOD"}}, "note": "Like-named read-outs stand apart in the source and are kept apart here.", "data": [{"molecule": "CCCCN(CC(=O)Nc1cc(N(C)C)c2c(c1O)C(=O)C1=C(O)[C@]3(O)C(=O)C(C(N)=O)=C(O)[C@@H](N(C)C)C3CC1C2)C(=O)OCOC(=O)C(C)C", "note": "(stereo partly drawn) [Example 1, ({[(2-{[(7S,10aS)-9-(aminocarbonyl)-4,7-bis(dimethylamino)-1,8,10a,11-tetrahydroxy-10,12-dioxo-5,5a,6,6a,7,10,10a,12-octahydrotetracen-2-yl]amino}-2-oxoethyl)(butyl)amino]carbonyl}oxy)methyl 2-methylpropanoate]", "values": [{"measurement": "MIC", "setting": "S. cholerasius GC 1355; Mouse Serum pre-incubation", "result": 8, "unit": "µg/mL"}, {"measurement": "MIC", "setting": "S. cholerasius GC 1355; Water pre-incubation", "result": "> 64", "unit": "µg/mL"}, {"measurement": "Cmax", "setting": "[1]", "result": "no levels detected"}, {"measurement": "MIC", "setting": "Salmonella spp. GC 235; Mouse Serum pre-incubation", "result": 1, "unit": "µg/mL"}, {"measurement": "MIC", "setting": "Salmonella spp. GC 235; Water pre-incubation", "result": 64, "unit": "µg/mL"}, {"measurement": "MIC", "setting": "Salmonella spp. GC 566; Mouse Serum pre-incubation", "result": 2, "unit": "µg/mL"}, {"measurement": "MIC", "setting": "Salmonella spp. GC 566; Water pre-incubation", "result": 64, "unit": "µg/mL"}, {"measurement": "MIC", "setting": "Staph. aureus Smith; Table 8", "result": 4, "unit": "µg/mL"}]}, {"molecule": "CCCN(CC(=O)Nc1cc(N(C)C)c2c(c1O)C(=O)C1=C(O)[C@]3(O)C(=O)C(C(N)=O)=C(O)[C@@H](N(C)C)[C@@H]3C[C@@H]1C2)C(=O)OCOC(=O)c1ccc(C)cc1", "note": "[Example 5, ({[(2-{[(5aR,6aS,7S,10aS)-9-(aminocarbonyl)-4,7-bis(dimethylamino)-1,8,10a,11-tetrahydroxy-10,12-dioxo-5,5a,6,6a,7,10,10a,12-octahydrotetracen-2-yl]amino}-2-oxoethyl)(propyl)amino]carbonyl}oxy)methyl 4-methylbenzoate]", "values": [{"measurement": "MIC", "setting": "S. cholerasius GC 1355; Mouse Serum pre-incubation", "result": 16, "unit": "µg/mL"}, {"measurement": "MIC", "setting": "S. cholerasius GC 1355; Water pre-incubation", "result": "> 64", "unit": "µg/mL"}, {"measurement": "ED50", "setting": "E. coli #311; [4]", "result": 3.17, "unit": "mg/kg"}, {"measurement": "ED50", "setting": "E. coli #311; [5]", "result": "> 64", "unit": "mg/kg"}, {"measurement": "MIC", "setting": "Salmonella spp. GC 235; Mouse Serum pre-incubation", "result": 2, "unit": "µg/mL"}, {"measurement": "MIC", "setting": "Salmonella spp. GC 235; Water pre-incubation", "result": 32, "unit": "µg/mL"}, {"measurement": "MIC", "setting": "Salmonella spp. GC 566; Mouse Serum pre-incubation", "result": 4, "unit": "µg/mL"}, {"measurement": "MIC", "setting": "Salmonella spp. GC 566; Water pre-incubation", "result": 64, "unit": "µg/mL"}, {"measurement": "MIC", "setting": "E. coli", "result": "> 64", "unit": "µg/mL"}, {"measurement": "MIC", "setting": "Staph. aureus Smith; Table 8", "result": 1, "unit": "µg/mL"}]}, {"molecule": "CCCN(CC(=O)Nc1cc(N(C)C)c2c(c1O)C(=O)C1=C(O)[C@]3(O)C(=O)C(C(N)=O)=C(O)[C@@H](N(C)C)[C@@H]3C[C@@H]1C2)C(=O)OCOC(=O)c1ccsc1", "note": "[Example 27, ({[(2-{[(5aR,6aS,7S,10aS)-9-(aminocarbonyl)-4,7-bis(dimethylamino)-1,8,10a,11-tetrahydroxy-10,12-dioxo-5,5a,6,6a,7,10,10a,12-octahydrotetracen-2-yl]amino}-2-oxoethyl)(propyl)amino]carbonyl}oxy)methyl thiophene-3-carboxylate]", "values": [{"measurement": "ED50", "setting": "E. coli #311; [6]", "result": "> 2", "unit": "mg/kg"}, {"measurement": "ED50", "setting": "E. coli #311; [7]", "result": "> 32", "unit": "mg/kg"}, {"measurement": "MIC", "setting": "Enterococcus spp.; Human Serum", "result": "0.5-2"}, {"measurement": "MIC", "setting": "Enterococcus spp.; Mouse Serum", "result": "0.12-1"}, {"measurement": "MIC", "setting": "Enterococcus spp.; water", "result": "0.12-1"}, {"measurement": "MIC", "setting": "Streptococcus spp.; Human Serum", "result": "0.12-2"}, {"measurement": "MIC", "setting": "Streptococcus spp.; Mouse Serum", "result": "<0.06-0.12"}, {"measurement": "MIC", "setting": "Streptococcus spp.; water", "result": "<0.06-0.12"}, {"measurement": "MIC", "setting": "[2]", "result": "4-8"}, {"measurement": "MIC", "setting": "Staph. aureus Smith; Table 8", "result": 0.12, "unit": "µg/mL"}, {"measurement": "MIC", "setting": "[3]; Human Serum", "result": "4-16"}, {"measurement": "MIC", "setting": "[3]; Mouse Serum", "result": "0.5-1"}]}, {"molecule": "CCCCCCC(=O)OCOC(=O)N(CC(=O)Nc1cc(N(C)C)c2c(c1O)C(=O)C1=C(O)[C@]3(O)C(=O)C(C(N)=O)=C(O)[C@@H](N(C)C)[C@@H]3C[C@@H]1C2)C(C)(C)C", "note": "[Example 48, ({[(2-{[(5aR,6aS,7S,10aS)-9-(aminocarbonyl)-4,7-bis(dimethylamino)-1,8,10a,11-tetrahydroxy-10,12-dioxo-5,5a,6,6a,7,10,10a,12-octahydrotetracen-2-yl]amino}-2-oxoethyl)(tert-butyl)amino]carbonyl}oxy)methyl heptanoate]", "values": [{"measurement": "ED50", "setting": "E. coli #311; [6]", "result": 1.7, "unit": "mg/kg"}, {"measurement": "ED50", "setting": "E. coli #311; [4]", "result": 1.7, "unit": "mg/kg"}, {"measurement": "ED50", "setting": "E. coli #311; [7]", "result": 29.8, "unit": "mg/kg"}, {"measurement": "ED50", "setting": "E. coli #311; [5]", "result": 29.8, "unit": "mg/kg"}, {"measurement": "MIC", "setting": "E. coli", "result": "> 64", "unit": "µg/mL"}, {"measurement": "MIC", "setting": "Staph. aureus Smith; Table 6", "result": 0.25, "unit": "µg/mL"}]}, {"molecule": "CCC(=O)OCOC(=O)N(CC(=O)Nc1cc(N(C)C)c2c(c1O)C(=O)C1=C(O)[C@]3(O)C(=O)C(C(N)=O)=C(O)[C@@H](N(C)C)[C@@H]3C[C@@H]1C2)C(C)(C)C", "note": "[Example 49, ({[(2-{[(5aR,6aS,7S,10aS)-9-(aminocarbonyl)-4,7-bis(dimethylamino)-1,8,10a,11-tetrahydroxy-10,12-dioxo-5,5a,6,6a,7,10,10a,12-octahydrotetracen-2-yl]amino}-2-oxoethyl)(tert-butyl)amino]carbonyl}oxy)methyl propionate]", "values": [{"measurement": "ED50", "setting": "E. coli #311; [6]", "result": 2.2, "unit": "mg/kg"}, {"measurement": "ED50", "setting": "E. coli #311; [4]", "result": 2.2, "unit": "mg/kg"}, {"measurement": "ED50", "setting": "E. coli #311; [7]", "result": 49, "unit": "mg/kg"}, {"measurement": "ED50", "setting": "E. coli #311; [5]", "result": 49, "unit": "mg/kg"}, {"measurement": "MIC", "setting": "E. coli", "result": 64, "unit": "µg/mL"}, {"measurement": "MIC", "setting": "Staph. aureus Smith; Table 6", "result": 0.25, "unit": "µg/mL"}]}, {"molecule": "CN(C)c1cc(NC(=O)CN(C(=O)OCOC(=O)C2CCCCC2)C(C)(C)C)c(O)c2c1C[C@H]1C[C@H]3[C@H](N(C)C)C(O)=C(C(N)=O)C(=O)[C@@]3(O)C(O)=C1C2=O", "note": "[Example 50, ({[(2-{[(5aR,6aS,7S,10aS)-9-(aminocarbonyl)-4,7-bis(dimethylamino)-1,8,10a,11-tetrahydroxy-10,12-dioxo-5,5a,6,6a,7,10,10a,12-octahydrotetracen-2-yl]amino}-2-oxoethyl)(tert-butyl)amino]carbonyl}oxy)methyl cyclohexanecarboxylate]", "values": [{"measurement": "ED50", "setting": "E. coli #311; [6]", "result": 2.59, "unit": "mg/kg"}, {"measurement": "ED50", "setting": "E. coli #311; [4]", "result": 1.7, "unit": "mg/kg"}, {"measurement": "ED50", "setting": "E. coli #311; [7]", "result": "> 64", "unit": "mg/kg"}, {"measurement": "ED50", "setting": "E. coli #311; [5]", "result": 29.8, "unit": "mg/kg"}, {"measurement": "MIC", "setting": "E. coli", "result": "> 64", "unit": "µg/mL"}, {"measurement": "MIC", "setting": "Staph. aureus Smith; Table 6", "result": 0.5, "unit": "µg/mL"}]}, {"molecule": "CN(C)c1cc(NC(=O)CN(C(=O)OCOC(=O)c2ccc(F)cc2)C(C)(C)C)c(O)c2c1C[C@H]1C[C@H]3[C@H](N(C)C)C(O)=C(C(N)=O)C(=O)[C@@]3(O)C(O)=C1C2=O", "note": "[Example 52, ({[(2-{[(5aR,6aS,7S,10aS)-9-(aminocarbonyl)-4,7-bis(dimethylamino)-1,8,10a,11-tetrahydroxy-10,12-dioxo-5,5a,6,6a,7,10,10a,12-octahydrotetracen-2-yl]amino}-2-oxoethyl)(tert-butyl)amino]carbonyl}oxy)methyl 4-fluorobenzoate]", "values": [{"measurement": "ED50", "setting": "E. coli #311; [6]", "result": 3.78, "unit": "mg/kg"}, {"measurement": "ED50", "setting": "E. coli #311; [4]", "result": 3.78, "unit": "mg/kg"}, {"measurement": "ED50", "setting": "E. coli #311; [7]", "result": 43.7, "unit": "mg/kg"}, {"measurement": "ED50", "setting": "E. coli #311; [5]", "result": 43.7, "unit": "mg/kg"}, {"measurement": "MIC", "setting": "E. coli", "result": 8, "unit": "µg/mL"}, {"measurement": "MIC", "setting": "Staph. aureus Smith; Table 6", "result": 2, "unit": "µg/mL"}]}, {"molecule": "CC(C)CC(=O)OCOC(=O)N(CC(=O)Nc1cc(N(C)C)c2c(c1O)C(=O)C1=C(O)[C@]3(O)C(=O)C(C(N)=O)=C(O)[C@@H](N(C)C)[C@@H]3C[C@@H]1C2)C(C)(C)C", "note": "[Example 53, ({[(2-{[(5aR,6aS,7S,10aS)-9-(aminocarbonyl)-4,7-bis(dimethylamino)-1,8,10a,11-tetrahydroxy-10,12-dioxo-5,5a,6,6a,7,10,10a,12-octahydrotetracen-2-yl]amino}-2-oxoethyl)(tert-butyl)amino]carbonyl}oxy)methyl 3-methylbutanoate]", "values": [{"measurement": "ED50", "setting": "E. coli #311; [6]", "result": 2.25, "unit": "mg/kg"}, {"measurement": "ED50", "setting": "E. coli #311; [4]", "result": 2.25, "unit": "mg/kg"}, {"measurement": "ED50", "setting": "E. coli #311; [7]", "result": 46.9, "unit": "mg/kg"}, {"measurement": "ED50", "setting": "E. coli #311; [5]", "result": 46.9, "unit": "mg/kg"}, {"measurement": "MIC", "setting": "E. coli", "result": 32, "unit": "µg/mL"}, {"measurement": "MIC", "setting": "Staph. aureus Smith; Table 6", "result": 1, "unit": "µg/mL"}]}]}
